# Measured values taken from patent US20110039700A1, “Method for Improved Utilization of the Production Potential of Transgenic Plants Introduction” (priority 2008, published 2011).
# Columns and labels:
# Type in all cases: in vivo
# Spodoptera frugiperda [1] = test: Foliar application Spodoptera frugiperda/cotton; conditions: 72 h, read-out: Mortality in % after 3^d
# Procedure: Individually potted transgenic cotton plants with Lepidoptera resistance and herbicide resistance (Line DP444 BG/RR) are treated with the desired product against the fall army worm (Spodoptera frugiperda).
# (§1) After the desired period of time, the mortality in % is determined. Here 100% means that all caterpillars have been killed; 0% means that none of the caterpillars have been killed.
# Spodoptera frugiperda [2] = test: Drench application Spodoptera frugiperda/maize; conditions: soil, 96 h, read-out: Mortality in % after 4^d
# Procedure: Pots containing in each case 5 transgenic maize plants with Lepidoptera, Coleoptera and/or herbicide resistance are treated by drenching against the fall army worm (Spodoptera frugiperda) in 2 replications.
# as §1
# Spodoptera exigua = test: Foliar application Spodoptera exigua/maize; conditions: 96 h, read-out: Mortality in % after 4^d
# Procedure: Pots containing in each case 5 transgenic maize plants with Lepidoptera, Coleoptera and/or herbicide resistance are treated against the beet army worm (Spodoptera exigua) in 2 replications.
# as §1
Compound,mortality at 500 ppm (Spodoptera frugiperda [1]),mortality at 100 ppm (Spodoptera frugiperda [2]),mortality at 100 ppm (Spodoptera exigua)
CCC(C)(C)C(=O)OC1=C(c2ccc(Cl)cc2Cl)C(=O)OC12CCCCC2 [spirodiclofen],0%,,
Cc1cc(C)c(C2=C(OC(=O)CC(C)(C)C)C3(CCCC3)OC2=O)c(C)c1 [spiromesifen],,10%,0%
